Source: PMC5540490, “Plasma concentrations of caspofungin in a critically ill patient with morbid obesity” (Critical Care, 2017)
Read-outs that look alike come from different tables or passages of the source.

Experiments:
[1] = Plasma/serum concentrations of caspofungin in a critically ill patient with morbid obesity; assay type: in vivo; details: male, human, plasma, 100 mg/day; for Cmax: read-out: Cpeak
Excerpt: The aim of the study was to describe the pharmacokinetic behaviour of caspofungin in a critically ill patient with morbid obesity who received doses of caspofungin higher than labelled doses.
(§1) A morbidly obese person (BMI = 50 kg/m^2) was admitted to our ICU after surgical treatment of anastomotic leak in the postoperative period of elective laparoscopic bariatric surgery. The patient was in septic shock, with Candida multicolonization and other risk factors of invasive candidiasis. We decided to start antimicrobial treatment, including meropenem, linezolid and caspofungin. With the intention of maximizing the potential effectiveness of antifungal treatment, caspofungin at a dose of 100 mg/day was chosen. The caspofungin dose was calculated using a population pharmacokinetic model. Target AUC/MIC was set at 860 and therefore AUC values above 107 mg*h/L were necessary assuming MIC = 0.125 mg/L [2]. […] The manufacturer recommends caspofungin dose reduction when AUC values are above 210 mg*h/L and, accordingly, drug exposure was considered safe.

[2] = Clinical course and tolerability of caspofungin treatment in the patient; assay type: in vivo, human; details: 100 mg/day for 14 days; one patient
Excerpt: as §1

[3] = three days later, one morbidly obese ICU patient

Which AUC ([1]; after the first dose, one morbidly obese ICU patient) does the source give for `CC[C@H](C)C[C@H](C)CCCCCCCCC(=O)N[C@H]1C[C@@H](O)[C@@H](NCCN)NC(=O)[C@@H]2[C@@H](O)CCN2C(=O)[C@H]([C@H](O)CCN)NC(=O)[C@H]([C@H](O)[C@@H](O)c2ccc(O)cc2)NC(=O)[C@@H]2C[C@@H](O)CN2C(=O)[C@H]([C@@H](C)O)NC1=O` [caspofungin] here?
Its AUC is 116 µg·h/mL.

What about the Cmax ([1]; after the first dose, one morbidly obese ICU patient (BMI 50 kg/m^2) in septic shock) of the same compound?
The Cmax was 4510 ng/mL.

What about the AUC [1, 3] of the same compound?
Its AUC is 140 µg·h/mL.

And the Cmax [1, 3]?
The Cmax was 5970 ng/mL.

What about the level at 72 h ([1]; three days later, one morbidly obese ICU patient, read-out: Ctrough) of the same compound?
Its level at 72 h is 1760 ng/mL.

And the “Adverse effects related to the drug” value [2]?
Its value is “without any adverse effects”.
